The subject of the assay is T1, β-glucosidase.
T1 construct: recombinant, cloned and expressed in E. coli DH5alpha; extracellular, from culture supernatant; partially purified (ammonium sulfate, dialysis); EC 3.2.1.21
Nature of the assay: p-nitrophenol release at […] nm, Lineweaver-Burk plot. The format is biochemical, Bacillus subtilis. To be noted: free enzyme, partially purified; acetate buffer 100 mM, pH 5.0, 60 °C, 30 min; 1–15 mM substrate.

SMILES strings stand for the structures.

In the case of `O=[N+]([O-])c1ccc(O[C@@H]2O[C@H](CO)[C@@H](O)[C@H](O)[C@H]2O)cc1` [pNPG], the Michaelis-Menten constant (Km) stood at 3.6 mM.
